Test [1] deals with T1, Mcl-1/Bim interaction, recombinant human Mcl-1 (171-327) (Homo sapiens, UniProt Q07820).
T1 construct: made in house
Put plainly: Cell free Mcl-1: Bim Affinity Assay (Mcl-1 HTRF). Type of test: binding. Summed up: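 Displacement of biotinylated Bim 51-76 peptide is followed by TR-FRET. Incubation runs overnight. Duplicate points are fitted with a four-parameter sigmoid to yield IC50.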

In test [2] the test system is OPM-2 human multiple myeloma cell line. Put plainly: Cell Viability Assay (OPM-2 10 FBS). The settings on record: OPM-2 cells, CellTiter-Glo. Type of test: cell-based. Summed up: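 IC50 from 4-parameter logistic fit of CellTiter-Glo luminescence. 3000 cells/well, 10% FBS medium, serial compound dilutions, 16 h, 37 °C/5% CO2; read 25 min post-reagent.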
[3] abbreviates: cell free Mcl-1:Bim TR-FRET, recombinant human Mcl-1 (171-327).
[4] abbreviates: Homo sapiens, OPM-2, 16 h, 16 h.
Where [5] appears, read: TR-FRET, 0.1 nM Mcl-1 (171-327), 0.05 nM biotin-Bim (51-76).

We go through 22 molecules from patent US12091425B2 (AMGEN INC., priority 2016, dated 2024).

Broadly, the IC50 is the midpoint of a concentration-inhibition curve.

T1 sequence (Q07820 171-327): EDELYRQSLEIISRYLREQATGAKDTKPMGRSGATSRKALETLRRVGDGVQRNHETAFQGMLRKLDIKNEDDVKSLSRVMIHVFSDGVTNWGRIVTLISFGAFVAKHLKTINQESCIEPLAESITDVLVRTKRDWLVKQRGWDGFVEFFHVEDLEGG

Regarding `C[C@@H]1[C@@H](C)C/C=C/[C@H](OCCN2CCOCC2)[C@@H]2CC[C@H]2CN2C[C@@]3(CCCc4cc(Cl)ccc43)COc3ccc(cc32)C(=O)NS1(=O)=O` [Example 720, (1S,3′R,6′R,7′S,8′E,11′S,12′R)-6-chloro-11′,12′-dimethyl-7′-(2-(4-morpholinyl)ethoxy)-3,4-dihydro-2H,15′H-spiro[naphthalene-1,22′-[20]oxa[13]thia[1,14]diazatetracyclo[14.7.2.0^3,6.0^19,24]pentacosa [8,16,18,24]tetraen]-15′-one-13′, 13′-dioxide], the IC50 in test [1] (setting [3]) turned out to be 0.327 nM; in test [2] (setting [4]) it was 54.2 nM.
As to `C[C@H]1CCCS(=O)(=O)NC(=O)c2ccc3c(c2)N(C[C@@H]2CC[C@H]2[C@@H](O)C1)C[C@@]1(CCCc2cc(Cl)ccc21)CO3` (single isomer, unassigned) [Example 241], the figures for the IC50 in test [1] (setting [5]) and in test [2] (16 h) were 4.85 nM and 7390 nM, respectively.
In the case of `CC1CC=CC(O)C2CCC2CN2CC3(CCCc4cc(Cl)ccc43)COc3ccc(cc32)C(=O)NS(=O)(=O)C1` (single isomer, unassigned) [Example 231], the figures for the IC50 in test [1] (setting [5]) and in test [2] (setting [4]) were 45.2 nM and 23100 nM, respectively.
With `CO[C@H]1/C=C/[C@H](CCO)C[C@@H](C)S(=O)(=O)NC(=O)c2ccc3c(c2)N(C[C@@H]2CC[C@H]21)C[C@@]1(CCCc2cc(Cl)ccc21)CO3` [Example 202, (1S,3′R,6′R,7′S,8′E,10′R,12′R)-6-chloro-10′-(2-hydroxyethyl)-7′-methoxy-12′-methyl-3,4-dihydro-2H,15′H-spiro[naphthalene-1,22′-[20]oxa[13]thia[1,14]diazatetracyclo[14.7.2.0^3,6.0^19,24]pentacosa [8,16,18,24]tetraen]-15′-one 13′,13′-dioxide], the IC50 in test [1] (setting [5]) was 0.218 nM; in test [2] (setting [4]) it was 566 nM.
As to `C[C@@H]1CC/C=C/[C@H](OCCN2CCOCC2)[C@@H]2CC[C@H]2CN2C[C@@]3(CCCc4cc(Cl)ccc43)COc3ccc(cc32)C(=O)NS1(=O)=O` [Example 418, (1S,3′R,6′R,7′S,8′E,12′R)-6-chloro-12′-methyl-7′-(2-(4-morpholinyl)ethoxy)-3,4-dihydro-2H,15′H-spiro[naphthalene-1,22′-[20]oxa[13]thia[1,14]diazatetracyclo[14.7.2.0^3,6.0^19,24]pentacosa [8,16,18,24]tetraen]-15′-one 13′,13′-dioxide], the IC50 in test [1] (setting [5]) worked out at 0.275 nM; in test [2] (setting [4]), 111 nM.
On to `COCCO[C@H]1/C=C/C[C@H](C)CS(=O)(=O)NC(=O)c2ccc3c(c2)N(C[C@@H]2CC[C@H]21)C[C@@]1(CCCc2cc(Cl)ccc21)CO3` (single isomer, unassigned) [Example 376], for which the results for the IC50 in test [1] (setting [5]) and in test [2] (16 h) were 0.403 nM and 222 nM, respectively.
Consider `C[C@@H]1[C@@H](C)C[C@H](CCO)/C=C/[C@@H]2CC[C@H]2CN2C[C@@]3(CCCc4cc(Cl)ccc43)COc3ccc(cc32)C(=O)NS1(=O)=O` [Example 113, (1S,3′R,6′S,7′E,9′R,11′S,12′R)-6-chloro-9′-(2-hydroxyethyl)-11′,12′-dimethyl-3,4-dihydro-2H,15′H-spiro[naphthalene-1,22′-[20]oxa[13]thia[1,14]diazatetracyclo[14.7.2.0^3,6.0^19,24]pentacosa[7,16,18,24]tetraen]-15′-one 13′,13′-dioxide], for which the values for the IC50 in test [1] (setting [5]) and in test [2] (setting [4]) were 0.998 nM and 1150 nM, respectively.
For `CS(=O)(=O)CCN1CC/C=C/[C@H](O)[C@@H]2CC[C@H]2CN2C[C@@]3(CCCc4cc(Cl)ccc43)COc3ccc(cc32)C(=O)NS1(=O)=O` [Example 34, (1S,3′R,6′R,7′S,8′E)-6-chloro-7′-hydroxy-12′-(2-(methylsulfonyl)ethyl)-3,4-dihydro-2H,15′H-spiro[naphthalene-1,22′-[20]oxa[13]thia[1,12,14]triazatetracyclo[14.7.2.0^3,6.0^19,24]pentacosa[8,16,18,24]tetraen]-15′-one 13′,13′-dioxide], in that order: 0.62 nM and 3600 nM.
On to `C[C@H]1C/C=C\[C@H](O)[C@@H]2CC[C@H]2CN2C[C@@]3(CCCc4cc(Cl)ccc43)COc3ccc(cc32)C(=O)NS(=O)(=O)N1C[C@H]1CCCO1` (single isomer, unassigned) [Example 54], for which the concentration for half-maximal inhibition (IC50) came out at 0.781 nM in test [1] (setting [5]) and 774 nM in test [2] (setting [4]).
In the case of `CC[C@@H]1CC/C=C/[C@H](OC(N)=O)[C@@H]2CC[C@H]2CN2C[C@@]3(CCCc4cc(Cl)ccc43)COc3ccc(cc32)C(=O)NS1(=O)=O` [Example 610, (1S,3′R,6′R,7′S,8′E,12′R)-6-chloro-12′-ethyl-13′,13′-dioxido-15′-oxo-3,4-dihydro-2H-spiro[naphthalene-1,22′-[20]oxa[13]thia[1,14]diazatetracyclo[14.7.2.0^3,6.0^19,24]pentacosa [8,16,18,24]tetraen]-7′-yl carbamate], the IC50 in test [1] (setting [3]) stood at 0.923 nM; in test [2] (setting [4]), 1140 nM.
As to `Cc1noc(C)c1CO[C@@H]1/C=C/CCCS(=O)(=O)NC(=O)c2ccc3c(c2)N(C[C@@H]2CC[C@H]21)C[C@@]1(CCCc2cc(Cl)ccc21)CO3` [Example 214, (1S,3′R,6′R,7′R,8′E)-6-chloro-7′-((3,5-dimethyl-4-isoxazolyl)methoxy)-3,4-dihydro-2H,15′H-spiro[naphthalene-1,22′-[20]oxa[13]thia[1,14]diazatetracyclo[14.7.2.0^3,6.0^19,24]pentacosa [8,16,18,24]tetraen]-15′-one 13′,13′-dioxide], the IC50 in test [1] (setting [5]) amounted to 12.3 nM; in test [2] (setting [4]), 2280 nM.
Regarding `C[C@@H]1[C@@H](C)C/C=C/[C@H](OCCN(C)C)[C@@H]2CC[C@H]2CN2C[C@@]3(CCCc4cc(Cl)ccc43)COc3ccc(cc32)C(=O)NS1(=O)=O` [Example 513, (1S,3′R,6′R,7′S,8′E,11′S,12′R)-6-chloro-7′-(2-(dimethylamino)ethoxy)-11′,12′-dimethyl-3,4-dihydro-2H,15′H-spiro[naphthalene-1,22′-[20]oxa[13]thia[1,14]diazatetracyclo[14.7.2.0^3,6.0^19,24]pentacosa [8,16,18,24]tetraen]-15′-one 13′,13′-dioxide], the results for the IC50 in test [1] (setting [3]) and in test [2] (setting [4]) were 0.395 nM and 184 nM, respectively.
With `C[C@@H]1[C@@H](C)C/C=C/C(=O)[C@@H]2CC[C@H]2CN2C[C@@]3(CCCc4cc(Cl)ccc43)COc3ccc(cc32)C(=O)NS1(=O)=O` [Example 349, (1S,3′R,6′R,8′E,11′S,12′R)-6-chloro-11′,12′-dimethyl-3,4-dihydro-2H,7′H,15′H-spiro[naphthalene-1,22′-[20]oxa[13]thia[1,14]diazatetracyclo[14.7.2.0^3,6.0^19,24]pentacosa [8,16,18,24]tetraene]-7′,15′-dione 13′,13′-dioxide], the results for the IC50 in test [1] (setting [5]) and in test [2] (setting [4]) were 3.83 nM and 1050 nM, respectively.
As for `CC[C@@H]1CC/C=C/[C@H](O[C@H]2CCOC2=O)[C@@H]2CC[C@H]2CN2C[C@@]3(CCCc4cc(Cl)ccc43)COc3ccc(cc32)C(=O)NS1(=O)=O` (single isomer, unassigned) [Example 425], the half-inhibitory concentration (IC50) in test [1] (setting [5]) amounted to 0.4 nM; in test [2] (16 h), 304 nM.
`C[C@@H]1[C@@H](C)C/C=C/[C@H](OCC(=O)N2CC(F)(F)C2)[C@@H]2CC[C@H]2CN2C[C@@]3(CCCc4cc(Cl)ccc43)COc3ccc(cc32)C(=O)NS1(=O)=O` [Example 308, (1S,3′R,6′R,7′S,8′E,11′S,12′R)-6-chloro-7′-(2-(3,3-difluoro-1-azetidinyl)-2-oxoethoxy)-11′,12′-dimethyl-3,4-dihydro-2H,15′H-spiro[naphthalene-1,22′-[20]oxa[13]thia[1,14]diazatetracyclo[14.7.2.0^3,6.0^19,24]pentacosa [8,16,18,24]tetraen]-15′-one 13′,13′-dioxide]: the IC50 in test [1] (setting [5]) was 0.382 nM; in test [2] (setting [4]) it was 214 nM.
Take `CC[C@H]1C/C=C/[C@H](O)[C@@H]2CC[C@H]2CN2C[C@@]3(CCCc4cc(Cl)ccc43)COc3ccc(cc32)C(=O)NS(=O)(=O)N1` (single isomer, unassigned) [Example 686]: the 50% inhibitory concentration (IC50) in test [1] (setting [3]) came to 0.597 nM; in test [2] (16 h) it was 993 nM.
As for `C[C@@H](O)C[C@@H]1CC/C=C\[C@H](O)[C@@H]2CC[C@H]2CN2C[C@@]3(CCCc4cc(Cl)ccc43)COc3ccc(cc32)C(=O)NS1(=O)=O` (single isomer, unassigned) [Example 550], the IC50 is 0.582 nM in test [1] (setting [3]) and 7290 nM in test [2] (setting [4]).
Take `COC[C@@H](O)C[C@@H]1[C@@H](C)C/C=C/[C@H](OC)[C@@H]2CC[C@H]2CN2C[C@@]3(CCCc4cc(Cl)ccc43)COc3ccc(cc32)C(=O)NS1(=O)=O` (single isomer, unassigned) [Example 679]: the figures for the IC50 in test [1] (setting [3]) and in test [2] (16 h) were 0.429 nM and 205 nM, respectively.
In the case of `CNC(=O)[C@@H](OC)[C@@H]1CC[C@@H]2CC[C@H]2CN2C[C@@]3(CCCc4cc(Cl)ccc43)COc3ccc(cc32)C(=O)NS(=O)(=O)[C@H](C)[C@@H](C)C1` (single isomer, unassigned) [Example 363], the values for the IC50 in test [1] (setting [5]) and in test [2] (16 h) were 0.793 nM and 483 nM, respectively.
In the case of `N#CCC[C@@H]1CC/C=C/[C@H](O)[C@@H]2CC[C@H]2CN2C[C@@]3(CCCc4cc(Cl)ccc43)COc3ccc(cc32)C(=O)NS1(=O)=O` (single isomer, unassigned) [Example 613], the IC50 in test [1] (setting [3]) is 0.329 nM; in test [2] (setting [4]) it was 1540 nM.
Consider `O=C1NS(=O)(=O)[C@H](C2CC2)CC/C=C/[C@H](O)[C@@H]2CC[C@H]2CN2C[C@@]3(CCCc4cc(Cl)ccc43)COc3ccc1cc32` (single isomer, unassigned) [Example 149], for which the IC50 in test [1] (setting [5]) turned out to be 0.77 nM; in test [2] (16 h), 1330 nM.
In the case of `COCCO[C@H]1/C=C/[C@H](C)[C@H](C)CS(=O)(=O)NC(=O)c2ccc3c(c2)N(C[C@@H]2CC[C@H]21)C[C@@]1(CCCc2cc(Cl)ccc21)CO3` (single isomer, unassigned) [Example 1065], the figures for the IC50 in test [1] (setting [5]) and in test [2] (16 h incubation) were 0.402 nM and 94.9 nM, respectively.
